Laboratory results as given in article PMC6123649, “Structural basis for specific inhibition of the highly sensitive ShHTL7 receptor” (EMBO Reports, 2018).

Tests used:
AtD14 [1] = target: T1, AtD14 (Arabidopsis thaliana, UniProt Q9SQR3); test: Intrinsic Triton fluorescence binding assay; conditions: up to 5 μM of AtD14
T1 construct: made in house; host or cells: E. coli BL21 (DE3)
T1 sequence (Q9SQR3 1-267): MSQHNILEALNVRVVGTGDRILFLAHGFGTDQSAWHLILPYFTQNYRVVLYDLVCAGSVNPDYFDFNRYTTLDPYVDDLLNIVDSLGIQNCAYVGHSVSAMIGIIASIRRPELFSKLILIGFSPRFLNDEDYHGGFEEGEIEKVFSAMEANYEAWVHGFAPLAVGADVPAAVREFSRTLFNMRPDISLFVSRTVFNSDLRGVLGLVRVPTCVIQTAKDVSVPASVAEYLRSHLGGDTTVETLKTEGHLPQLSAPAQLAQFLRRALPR
Procedure: (§1) Triton X‐100 has an excitation and emission wavelength of 275 and 302 nm, respectively. ShHTL7, ShHTL7‐L143Y, AtD14, and OsD14 were incubated in 50 mM Tris–HCl pH 7.5, 150 mM NaCl, with or without 0.005% Tween‐20, at concentrations ranging from 10 μM to 1 nM (obtained using serial dilutions) with 154 nM of Triton X‐100 for 1–2 h, and fluorescence values were then measured by SpectraMax i3 (Molecular Devices) at excitation and detection wavelengths of 275 and 302 nm, respectively. […] Data were normalized to the background fluorescence from the protein to obtain the change in Triton X‐100 fluorescence intensity. To determine the K d, the changes in Triton X‐100 fluorescence intensity were plotted against the concentration of the protein using the single binding site model implemented in GraphPad (Prism 6).

ShHTL7 [2] = target: T2, ShHTL7 (Striga hermonthica, UniProt A0A0M3PNA2); test: Intrinsic Triton fluorescence binding assay
T2 sequence (A0A0M3PNA2 1-271): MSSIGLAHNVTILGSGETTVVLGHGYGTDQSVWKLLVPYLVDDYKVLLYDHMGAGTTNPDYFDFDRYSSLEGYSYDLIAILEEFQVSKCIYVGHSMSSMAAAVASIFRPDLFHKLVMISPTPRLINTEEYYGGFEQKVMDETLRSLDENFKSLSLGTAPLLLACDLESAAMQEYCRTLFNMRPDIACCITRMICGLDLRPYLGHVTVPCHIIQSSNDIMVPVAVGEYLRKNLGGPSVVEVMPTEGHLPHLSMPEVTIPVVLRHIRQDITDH
Procedure: as §1

ShHTL7 [3] = target: T2, ShHTL7; test: Microscale thermophoresis (MST); type: binding; conditions: 2.5 h pre‐incubation; 0.005% Tween‐20; read-out: dissociation constant (Kd), MST
Procedure: ShHTL7 was N‐terminally labeled with RED dye (NT‐647) following the protocol from manufacturer (NanoTemper, Germany). Free dye was removed by passing through the Sephadex G‐25 column. Serial dilutions of unlabeled Triton X‐100, GR24, and PAA ranging from 25 μM to sub‐nanomolar range were mixed with 20 nM of NT‐647‐labeled ShHTL7 in buffer (50 mM Tris–HCl, 150 mM NaCl, 0.005% Tween‐20) and incubated for 2.5 h in the studies for Triton X‐100 and PAA except with GR24, and it was recorded after 10‐min incubation. About 10 μl of sample was loaded into premium monolith NT capillaries, and assays were carried out in a NanoTemper Monolith NT.015T. The red fluorescence was excited by a light‐emitting diode, and its emission was recorded on the focused part of capillaries. Using laser diode, a microscopic temperature gradient was created at the same location and the fluorescence depletion was measured. K d values were determined by plotting the concentrations of unlabeled ligands against the changes in fluorescent thermophoresis signal, and the data were analyzed using the NanoTemper analysis software.

AtD14 [4] = target: T1, AtD14; test: YLG hydrolysis assay; type: biochemical
Procedure: (§2) In vitro YLG hydrolysis assays were performed using 3 μM of ShHTL7, ShHTL7‐L143Y, AtD14, and OsD14 in a reaction buffer (1× PBS) with 0.1% dimethyl sulfoxide (DMSO) in a 100 μl volume on a 96‐well black plate (Greiner). The fluorescent intensity was measured by SpectraMax i3 (Molecular Devices) using an excitation wavelength of 480 nm and a detection wavelength of 520 nm. ShHTL7, ShHTL7‐L143Y, AtD14, and OsD14 were mixed with Triton X‐100, using serial dilutions to cover the Triton X‐100 concentration range from 5 μM until 4.87 nM. Protein‐Triton mixes were pre‐incubated for 30 min. 1 μM YLG (Tokyo Chemical Industry Co. Ltd.) was then added, and the assay was incubated for 60 min. The change in fluorescence observed over the course of 1 h incubation of YLG in buffer without protein was subtracted from the data collected in the presence of protein. The resulting relative fluorescence values were analyzed. The inhibitory curves and IC50 values were plotted using GraphPad (Prism 6) four‐parameter logistic curve. The rate of YLG hydrolysis by ShHTL7 was recorded following the above method at 10‐min interval for 2 h.

OsD14 = target: T3, OsD14 (Oryza sativa subsp. japonica, UniProt Q10QA5); test: YLG hydrolysis assay; type: biochemical
T3 construct: made in house; host or cells: E. coli BL21 (DE3)
T3 sequence (Q10QA5 1-318): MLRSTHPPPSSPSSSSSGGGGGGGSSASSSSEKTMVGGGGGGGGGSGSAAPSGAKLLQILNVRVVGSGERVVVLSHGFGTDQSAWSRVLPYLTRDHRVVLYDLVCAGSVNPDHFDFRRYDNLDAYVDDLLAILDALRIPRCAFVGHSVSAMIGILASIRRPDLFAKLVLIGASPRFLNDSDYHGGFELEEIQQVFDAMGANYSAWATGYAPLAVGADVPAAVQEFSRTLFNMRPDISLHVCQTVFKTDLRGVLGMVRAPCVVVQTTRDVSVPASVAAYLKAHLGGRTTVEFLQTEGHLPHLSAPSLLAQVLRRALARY
Procedure: as §2

[5] = system: rice seeds cv. Nipponbare; test: Rice seed germination assay and growth of seedlings; type: in vivo; conditions: 15 μM of Triton
Procedure: The rice seeds cv. Nipponbare were surface‐sterilized using 50 ml (2.5%) sodium hypochlorite with 0.4% of Tween‐20 for 15 min. After six subsequent washing steps with sterilized water, the rice seeds were kept in water at 30°C for overnight imbibition. About 2 ml of Triton X‐100 concentrations ranging from 1 to 100 μM and sterile MilliQ water (control) was added in 24‐well plates with six replications. One sterilized rice seed was put in each well and allowed to germinate for 48 h at 30°C. The germinated (radicle emergence) and non‐germinated seeds were recorded, and germination percentage was calculated. Then, same seeds were allowed to grow under light in growth cabinet for another 1 week. The length of […] seedlings was measured with roller and averaged.

Orobanche cumana = system: Orobanche cumana; parameters: method as in PMID 23915294; conditions: concentrations above 0.001%; cited from earlier work

Triton X-100
change of Triton fluorescence in presence of protein (AtD14 [1]): did not change | Kd for the Triton-ShHTL7 association (ShHTL7 [2]; across methods and buffers (authors' reply in peer review file)): ~ 250 nM | Kd (ShHTL7 [2]; in the absence of Tween‐20, read-out: final Kd, intrinsic Triton fluorescence): 233 ± 30 nM | Kd (ShHTL7 [2]; wild-type ShHTL7, buffer with 0.005% Tween‐20, converged after 2.5 h of incubation, read-out: dissociation constant (Kd), intrinsic Triton fluorescence): 284 ± 22 nM | Kd (ShHTL7 [3]): 440 ± 50 nM | decrease of YLG hydrolysis rate (AtD14 [4]; 5 μM Triton): 10% | effect on YLG hydrolysis activity (AtD14 [4]; Triton up to 0.5 μM): did not impact | decrease of YLG hydrolysis rate (OsD14; 5 μM Triton): 10% | effect on YLG hydrolysis activity (OsD14; Triton up to 0.5 μM): did not impact | effect on rice seed germination [5]: did neither inhibit | effect on rice seedling growth [5]: nor affected seedling growth | effect on seed germination (Orobanche cumana): hindered seed germination
